The record followed here is US10004701B2, “Methods and compositions for treating infection” (UNIVERSITY OF ROCHESTER, priority 2012, dated 2018).

Each structure is given as a SMILES string. Where a name gives a salt, the structure may show the parent alone. Read-outs that look alike come from different tables or passages of the source.

What all share (assay): AK assay 384-well format, Prestwick library screening
The test system of one assay is P. aeruginosa. It counts as cell-based, Pseudomonas aeruginosa. As to conditions: 50 μM final drug concentration; for fold induction at 50 µM: Pseudomonas aeruginosa, 3 h.
Assay [1] deals with S. aureus strain USA300-0114. It counts as cell-based, Staphylococcus aureus. As to conditions: 50 μM final drug concentration; for fold induction at 50 µM: Staphylococcus aureus, USA300, 3 h.
Assay [2] has as its system A. baumannii strain 98-37-09. It counts as cell-based, Acinetobacter baumannii. Conditions: 50 μM final drug concentration; for fold induction at 50 µM: Acinetobacter baumannii, 983709, 3 h.
Another assay relates to K. pneumoniae. In kind it is cell-based, Klebsiella pneumoniae. Conditions: 50 μM final drug concentration; for fold induction at 50 µM: Klebsiella pneumoniae, 3 h.
A further assay deals with E. coli. In kind it is cell-based, Escherichia coli. As to conditions: 50 μM final drug concentration; for fold induction at 50 µM: Escherichia coli, 3 h.
The subject of a further assay is E. cloacae. In kind it is cell-based, Enterobacter cloacae. As to conditions: for fold induction at 50 µM: Enterobacter cloacae, 3 h.
Another assay relates to E. faecium. It counts as cell-based, Enterococcus faecium. Conditions: 50 μM final drug concentration; for fold induction at 50 µM: Enterococcus faecium, 3 h.
The mark [3] stands for this setting: planktonic, cutoff for positive 3-fold increase.

Turning to `COc1cc2c(c(OC)c1OC)-c1ccc(O)c(=O)cc1C(N)CC2` (centres unmarked) [Trimethylcolchicinic acid], the fold induction at 50 µM was determined as 0.7 in the assay on P. aeruginosa (planktonic P. aeruginosa, […], read-out: AK-based Prestwick Library Screening Results, P. aeruginosa (increase in extracellular AK activity)); 0.6 in assay [1] (planktonic S. aureus, […], read-out: AK-based Prestwick Library Screening Results, S. aureus (increase in extracellular AK activity)); 1 in assay [2] (planktonic A. baumannii, […], read-out: AK-based Prestwick Library Screening Results, A. baumannii (increase in extracellular AK activity)); 0.7 with K. pneumoniae (planktonic K. pneumoniae, […], read-out: AK-based Prestwick Library Screening Results, K. pneumoniae (increase in extracellular AK activity)); 0.8 in the assay with E. coli (planktonic E. coli, […], read-out: AK-based Prestwick Library Screening Results, E. coli (increase in extracellular AK activity)); 0.8 in the assay with E. cloacae (planktonic E. cloacae, 50 μM final drug concentration, […], read-out: AK-based Prestwick Library Screening Results, E. cloacae (increase in extracellular AK activity)). The fold induction at 50 µM in the assay with E. faecium (planktonic E. faecium, […], read-out: AK-based Prestwick Library Screening Results, E. faecium (increase in extracellular AK activity)) stood at 1.2.
Consider `CC1(C)S[C@@H]2[C@H](NC(=O)Cc3ccccc3)C(=O)N2[C@H]1C(=O)O` [Benzylpenicillin sodium], for which the fold induction at 50 µM is 0.7 with P. aeruginosa (planktonic P. aeruginosa, positive cutoff 3-fold increase, read-out: AK-based Prestwick library screening result, P. aeruginosa (fold increase in extracellular AK activity)); 0.8 in assay [1] (planktonic S. aureus, positive cutoff 3-fold increase, read-out: AK-based Prestwick library screening result, S. aureus (fold increase in extracellular AK activity)); 2.9 in assay [2] (planktonic A. baumannii, positive cutoff 3-fold increase, read-out: AK-based Prestwick library screening result, A. baumannii (fold increase in extracellular AK activity)); 0.6 in the assay on K. pneumoniae (planktonic K. pneumoniae, positive cutoff 3-fold increase, read-out: AK-based Prestwick library screening result, K. pneumoniae (fold increase in extracellular AK activity)); 11.3 in the assay on E. coli (planktonic E. coli, positive cutoff 3-fold increase, read-out: AK-based Prestwick library screening result, E. coli (fold increase in extracellular AK activity)); 1.2 with E. cloacae (planktonic E. cloacae, 50 μM final drug concentration, positive cutoff 3-fold increase, read-out: AK-based Prestwick library screening result, E. cloacae (fold increase in extracellular AK activity)). Also, the fold induction at 50 µM in the assay with E. faecium (planktonic E. faecium, positive cutoff 3-fold increase, read-out: AK-based Prestwick library screening result, E. faecium (fold increase in extracellular AK activity)) stood at 1.7.
For the compound `CCCSc1ccc2nc(NC(=O)OC)[nH]c2c1` [Albendazole], the fold induction at 50 µM was 0.3 in the assay with P. aeruginosa (384-well format, […], read-out: AK-based Prestwick Library Screening Results, P. aeruginosa (increase in extracellular AK activity)); 0.2 in assay [1] (384-well format, […], read-out: AK-based Prestwick Library Screening Results, S. aureus (increase in extracellular AK activity)); 0.3 in assay [2] (384-well format, […], read-out: AK-based Prestwick Library Screening Results, A. baumannii (increase in extracellular AK activity)); 0.3 with K. pneumoniae (384-well format, […], read-out: AK-based Prestwick Library Screening Results, K. pneumoniae (increase in extracellular AK activity)); 0.3 in the assay on E. coli (384-well format, […], read-out: AK-based Prestwick Library Screening Results, E. coli (increase in extracellular AK activity)); 0.4 with E. cloacae (read-out: AK-based Prestwick Library Screening Results, E. cloacae (increase in extracellular AK activity)). For the same compound, the fold induction at 50 µM in the assay with E. faecium (384-well format, […], read-out: AK-based Prestwick Library Screening Results, E. faecium (increase in extracellular AK activity)) was determined as 0.5.
Take `CC1=NCCc2c1[nH]c1cc(O)ccc21` [Harmalol hydrochloride dihydrate]: the fold induction at 50 µM in the assay on P. aeruginosa (planktonic, cutoff for positive 3-fold increase, read-out: AK-based Prestwick Library Screening Results, P. aeruginosa (fold increase in extracellular AK activity)) was found to be 1.2; in assay [1] (planktonic, cutoff for positive 3-fold increase, read-out: AK-based Prestwick Library Screening Results, S. aureus (fold increase in extracellular AK activity)), 0.8; in assay [2] (planktonic, cutoff for positive 3-fold increase, read-out: AK-based Prestwick Library Screening Results, A. baumannii (fold increase in extracellular AK activity)) it was 1.1; in the assay with K. pneumoniae (planktonic, cutoff for positive 3-fold increase, read-out: AK-based Prestwick Library Screening Results, K. pneumoniae (fold increase in extracellular AK activity)), 0.8; in the assay with E. coli (planktonic, cutoff for positive 3-fold increase, read-out: AK-based Prestwick Library Screening Results, E. coli (fold increase in extracellular AK activity)), 1.2; in the assay on E. cloacae (50 μM final drug concentration, planktonic, cutoff for positive 3-fold increase, read-out: AK-based Prestwick Library Screening Results, E. cloacae (fold increase in extracellular AK activity)) it was 1.6. For the same compound, in the assay on E. faecium (planktonic, cutoff for positive 3-fold increase, read-out: AK-based Prestwick Library Screening Results, E. faecium (fold increase in extracellular AK activity)), the fold induction at 50 µM was found to be 1.
As for `CC1Cc2ccccc2N1NC(=O)c1ccc(Cl)c(S(N)(=O)=O)c1` (centres unmarked) [Indapamide], the fold induction at 50 µM in the assay on P. aeruginosa (planktonic P. aeruginosa, 384-well, cutoff for positive-scoring molecules 3-fold increase, read-out: AK-based Prestwick Library Screening Results: P. aeruginosa (increase in extracellular AK activity)) came to 1.1; in assay [1] (planktonic S. aureus, 384-well, cutoff for positive-scoring molecules 3-fold increase, read-out: AK-based Prestwick Library Screening Results: S. aureus (increase in extracellular AK activity)) it was 1; in assay [2] (planktonic A. baumannii, 384-well, cutoff for positive-scoring molecules 3-fold increase, read-out: AK-based Prestwick Library Screening Results: A. baumannii (increase in extracellular AK activity)) it was 1; with K. pneumoniae (planktonic K. pneumoniae, 384-well, cutoff for positive-scoring molecules 3-fold increase, read-out: AK-based Prestwick Library Screening Results: K. pneumoniae (increase in extracellular AK activity)), 1.1; in the assay with E. coli (planktonic E. coli, 384-well, cutoff for positive-scoring molecules 3-fold increase, read-out: AK-based Prestwick Library Screening Results: E. coli (increase in extracellular AK activity)), 1.1; in the assay on E. cloacae (planktonic E. cloacae, 50 μM final drug concentration, 384-well, cutoff for positive-scoring molecules 3-fold increase, read-out: AK-based Prestwick Library Screening Results: E. cloacae (increase in extracellular AK activity)), 1.7. Besides, the fold induction at 50 µM with E. faecium (planktonic E. faecium, 384-well, cutoff for positive-scoring molecules 3-fold increase, read-out: AK-based Prestwick Library Screening Results: E. faecium (increase in extracellular AK activity)) stood at 1.1.
For `Clc1ccc(C(Cn2ccnc2)OCc2csc3c(Cl)cccc23)c(Cl)c1` (centres unmarked) [Sertaconazole nitrate], the fold induction at 50 µM was found to be 0.5 in the assay on P. aeruginosa (cutoff for positive-scoring molecules 3-fold increase, read-out: AK-based Prestwick Library Screening Results, P. aeruginosa (fold increase in extracellular AK activity)); 0.7 in assay [1] (cutoff for positive-scoring molecules 3-fold increase, read-out: AK-based Prestwick Library Screening Results, S. aureus (fold increase in extracellular AK activity)); 2.4 in assay [2] (cutoff for positive-scoring molecules 3-fold increase, read-out: AK-based Prestwick Library Screening Results, A. baumannii (fold increase in extracellular AK activity)); 0.7 in the assay on K. pneumoniae (cutoff for positive-scoring molecules 3-fold increase, read-out: AK-based Prestwick Library Screening Results, K. pneumoniae (fold increase in extracellular AK activity)); 0.7 with E. coli (cutoff for positive-scoring molecules 3-fold increase, read-out: AK-based Prestwick Library Screening Results, E. coli (fold increase in extracellular AK activity)); 0.4 in the assay on E. cloacae (50 μM final drug concentration, cutoff for positive-scoring molecules 3-fold increase, read-out: AK-based Prestwick Library Screening Results, E. cloacae (fold increase in extracellular AK activity)). The fold induction at 50 µM in the assay with E. faecium (cutoff for positive-scoring molecules 3-fold increase, read-out: AK-based Prestwick Library Screening Results, E. faecium (fold increase in extracellular AK activity)) was 2.8.
Turning to `CCN(CC)CCOC(=O)C1(c2ccc([N+](=O)[O-])cc2)CCCC1.Cl` [Nitrocaramiphen hydrochloride], in the assay on P. aeruginosa (planktonic P. aeruginosa, […]), the “AK-based Prestwick library screening result, P. aeruginosa (fold increase in extracellular AK activity)” value is 0.8. For the same compound, in assay [1] (planktonic S. aureus, […]), the “AK-based Prestwick library screening result, S. aureus (fold increase in extracellular AK activity)” value came out at 0.6. Besides, in assay [2] (planktonic A. baumannii, […]), the “AK-based Prestwick library screening result, A. baumannii (fold increase in extracellular AK activity)” value is 0.7. The “AK-based Prestwick library screening result, K. pneumoniae (fold increase in extracellular AK activity)” value in the assay with K. pneumoniae (planktonic K. pneumoniae, […]) is listed as 0.7. In addition, the “AK-based Prestwick library screening result, E. coli (fold increase in extracellular AK activity)” value in the assay with E. coli (planktonic E. coli, […]) came out at 0.9. In addition, the “AK-based Prestwick library screening result, E. cloacae (fold increase in extracellular AK activity)” value in the assay on E. cloacae (planktonic E. cloacae, 50 μM final drug concentration, […]) is 1.2. The “AK-based Prestwick library screening result, E. faecium (fold increase in extracellular AK activity)” value in the assay on E. faecium (planktonic E. faecium, […]) is on record as 0.9.
With `CNCCc1ccccn1.CS(=O)(=O)O.CS(=O)(=O)O` [Betahistine mesylate], the “AK-based Prestwick Library Screening Results, P. aeruginosa (fold increase in extracellular AK activity)” value in the assay with P. aeruginosa (setting [3]) is 1.1. The “AK-based Prestwick Library Screening Results, S. aureus (fold increase in extracellular AK activity)” value in assay [1] (setting [3]) was 0.9. For the same compound, the “AK-based Prestwick Library Screening Results, A. baumannii (fold increase in extracellular AK activity)” value in assay [2] (setting [3]) is 1.2. The “AK-based Prestwick Library Screening Results, K. pneumoniae (fold increase in extracellular AK activity)” value with K. pneumoniae (setting [3]) was found to be 1.1. Further, the “AK-based Prestwick Library Screening Results, E. coli (fold increase in extracellular AK activity)” value in the assay on E. coli (setting [3]) was 1.4. The “AK-based Prestwick Library Screening Results, E. cloacae (fold increase in extracellular AK activity)” value with E. cloacae (50 μM final drug concentration, planktonic, cutoff for positive 3-fold increase) came to 1.3. In addition, the “AK-based Prestwick Library Screening Results, E. faecium (fold increase in extracellular AK activity)” value in the assay on E. faecium (setting [3]) is 0.9.
